Molecular target: AMPK
Test: AMPK activation, enzyme-linked immunosorbent assay
Type: biochemical
Conditions: Table 9, compounds of Table 2
Method in brief: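 AMPK activation by test compounds was measured by enzyme-linked immunosorbent assay.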

| SMILES | EC50 [µM] |
| --- | --- |
| O=C(NC1CCN(Cc2cccnc2)CC1)c1ccc2[nH]c3c(c2c1)CN(c1ccc(F)cc1)CC3 [Compound 2-36, 2-(4-fluorophenyl)-N-(1-(pyridin-3-ylmethyl)piperidin-4-yl)-2,3,4,5-tetrahydro-1H-pyrido[4,3-b]indole-8-carboxamide] | > 100 |
| CC(C)(C)OC(=O)N1CCC(NC(=O)c2ccc3[nH]c4c(c3c2)CN(c2ccc(F)cc2)CC4)CC1 [Compound 2-38, tert-butyl 4-(2-(4-fluorophenyl)-2,3,4,5-tetrahydro-1H-pyrido[4,3-b]indole-8-carboxamido)piperidine-1-carboxylate] | 10 to 50 |
| O=C(NC1CCN(C(=O)c2ccc(F)cc2)CC1)c1ccc2[nH]c3c(c2c1)CN(c1ccc(F)cc1)CC3 [Compound 2-39, N-(1-(4-fluorobenzoyl)piperidin-4-yl)-2-(4-fluorophenyl)-2,3,4,5-tetrahydro-1H-pyrido[4,3-b]indole-8-carboxamide] | 10 to 50 |
| O=C(NC1CCN(C(=O)c2cccnc2)CC1)c1ccc2[nH]c3c(c2c1)CN(c1ccc(F)cc1)CC3 [Compound 2-40, 2-(4-fluorophenyl)-N-(1-nicotinoylpiperidin-4-yl)-2,3,4,5-tetrahydro-1H-pyrido[4,3-b]indole-8-carboxamide] | > 100 |
| O=C(NC1CCN(C(=O)c2ccc(C(F)(F)F)cc2)CC1)c1ccc2[nH]c3c(c2c1)CN(c1ccc(F)cc1)CC3 [Compound 2-41, 2-(4-fluorophenyl)-N-(1-(4-(trifluoromethyl)benzoyl)piperidin-4-yl)-2,3,4,5-tetrahydro-1H-pyrido[4,3-b]indole-8-carboxamide] | 10 to 50 |
| CC(C)(C)OC(=O)N1CCC(NC(=O)c2ccc3[nH]c4c(c3c2)CN(Cc2ccc(C(N)=O)cc2)CC4)CC1 [Compound 2-43, tert-butyl 4-(2-(4-carbamoylbenzyl)-2,3,4,5-tetrahydro-1H-pyrido[4,3-b]indole-8-carboxamido)piperidine-1-carboxylate] | > 100 |
| N#Cc1ccc(CN2CCC(NC(=O)c3ccc4[nH]c5c(c4c3)CN(Cc3ccc(C(N)=O)cc3)CC5)CC2)cc1 [Compound 2-44, 2-(4-carbamoylbenzyl)-N-(1-(4-cyanobenzyl)piperidin-4-yl)-2,3,4,5-tetrahydro-1H-pyrido[4,3-b]indole-8-carboxamide] | 10 to 50 |
| NC(=O)c1ccc(CN2CCc3[nH]c4ccc(C(=O)NC5CCN(Cc6ccncc6)CC5)cc4c3C2)cc1 [Compound 2-45, 2-(4-carbamoylbenzyl)-N-(1-(pyridin-4-ylmethyl)piperidin-4-yl)-2,3,4,5-tetrahydro-1H-pyrido[4,3-b]indole-8-carboxamide] | > 100 |

The next lines start with the values.

| EC50 [µM] | SMILES |
| --- | --- |
| 0.5 to 1 | O=C(NC1CCN(S(=O)(=O)c2cccnc2)CC1)c1ccc2[nH]c3c(c2c1)CN(Cc1ccc(C(F)(F)F)cc1)CC3 [Compound 2-22, N-(1-(pyridin-3-ylsulfonyl)piperidin-4-yl)-2-(4-(trifluoromethyl)benzyl)-2,3,4,5-tetrahydro-1H-pyrido[4,3-b]indole-8-carboxamide] |
| 1 to 5 | O=C(NC1CCN(S(=O)(=O)c2ccc(C(F)(F)F)cc2)CC1)c1ccc2[nH]c3c(c2c1)CN(Cc1ccc(C(F)(F)F)cc1)CC3 [Compound 2-23, 2-(4-(trifluoromethyl)benzyl)-N-(1-(4-(trifluoromethyl)phenylsulfonyl)piperidin-4-yl)-2,3,4,5-tetrahydro-1H-pyrido[4,3-b]indole-8-carboxamide] |
| 1 to 5 | N#Cc1ccc(CN2CCC(NC(=O)c3ccc4[nH]c5c(c4c3)CN(S(=O)(=O)c3ccc(C(F)(F)F)cc3)CC5)CC2)cc1 [Compound 2-24, N-(1-(4-cyanobenzyl)piperidin-4-yl)-2-(4-(trifluoromethyl)phenylsulfonyl)-2,3,4,5-tetrahydro-1H-pyrido[4,3-b]indole-8-carboxamide] |
| 10 to 50 | N#Cc1ccc(CN2CCC(NC(=O)c3ccc4[nH]c5c(c4c3)CN(S(=O)(=O)c3ccc(C#N)cc3)CC5)CC2)cc1 [Compound 2-25, N-(1-(4-cyanobenzyl)piperidin-4-yl)-2-(4-cyanophenylsulfonyl)-2,3,4,5-tetrahydro-1H-pyrido[4,3-b]indole-8-carboxamide] |
| 10 to 50 | N#Cc1ccc(CN2CCC(NC(=O)c3ccc4[nH]c5c(c4c3)CN(S(=O)(=O)c3cccnc3)CC5)CC2)cc1 [Compound 2-26, N-(1-(4-cyanobenzyl)piperidin-4-yl)-2-(pyridin-3-ylsulfonyl)-2,3,4,5-tetrahydro-1H-pyrido[4,3-b]indole-8-carboxamide] |
| 1 to 5 | N#Cc1ccc(NC(=O)N2CCC(NC(=O)c3ccc4[nH]c5c(c4c3)CN(Cc3ccc(C(F)(F)F)cc3)CC5)CC2)cc1 [Compound 2-27, N-(1-(4-cyanophenylcarbamoyl)piperidin-4-yl)-2-(4-(trifluoromethyl)benzyl)-2,3,4,5-tetrahydro-1H-pyrido[4,3-b]indole-8-carboxamide] |
| 1 to 5 | O=C(NC1CCN(S(=O)(=O)c2ccc(F)cc2)CC1)c1ccc2[nH]c3c(c2c1)CN(Cc1ccc(C(F)(F)F)cc1)CC3 [Compound 2-28, N-(1-(4-fluorophenylsulfonyl)piperidin-4-yl)-2-(4-(trifluoromethyl)benzyl)-2,3,4,5-tetrahydro-1H-pyrido[4,3-b]indole-8-carboxamide] |
| 1 to 5 | N#Cc1cccc(S(=O)(=O)N2CCC(NC(=O)c3ccc4[nH]c5c(c4c3)CN(Cc3ccc(C(F)(F)F)cc3)CC5)CC2)c1 [Compound 2-29, N-(1-(3-cyanophenylsulfonyl)piperidin-4-yl)-2-(4-(trifluoromethyl)benzyl)-2,3,4,5-tetrahydro-1H-pyrido[4,3-b]indole-8-carboxamide] |
| 1 to 5 | O=C(NC1CCN(S(=O)(=O)c2cccc(C(F)(F)F)c2)CC1)c1ccc2[nH]c3c(c2c1)CN(Cc1ccc(C(F)(F)F)cc1)CC3 [Compound 2-30, 2-(4-(trifluoromethyl)benzyl)-N-(1-(3-(trifluoromethyl)phenylsulfonyl)piperidin-4-yl)-2,3,4,5-tetrahydro-1H-pyrido[4,3-b]indole-8-carboxamide] |
| 1 to 5 | O=C(NC1CCN(S(=O)(=O)c2ccc(Cl)cc2)CC1)c1ccc2[nH]c3c(c2c1)CN(Cc1ccc(C(F)(F)F)cc1)CC3 [Compound 2-32, N-(1-(4-chlorophenylsulfonyl)piperidin-4-yl)-2-(4-(trifluoromethyl)benzyl)-2,3,4,5-tetrahydro-1H-pyrido[4,3-b]indole-8-carboxamide] |
| 1 to 5 | O=C(NC1CCN(C(=O)Nc2ccc(C(F)(F)F)cc2)CC1)c1ccc2[nH]c3c(c2c1)CN(Cc1ccc(C(F)(F)F)cc1)CC3 [Compound 2-33, 2-(4-(trifluoromethyl)benzyl)-N-(1-(4-(trifluoromethyl)phenylcarbamoyl)piperidin-4-yl)-2,3,4,5-tetrahydro-1H-pyrido[4,3-b]indole-8-carboxamide] |
| 10 to 50 | O=C(NC1CCN(S(=O)(=O)c2ccc(F)cc2)CC1)c1ccc2[nH]c3c(c2c1)CN(c1ccc(F)cc1)CC3 [Compound 2-35, 2-(4-fluorophenyl)-N-(1-(4-fluorophenylsulfonyl)piperidin-4-yl)-2,3,4,5-tetrahydro-1H-pyrido[4,3-b]indole-8-carboxamide] |
| 5 to 10 | O=C(NC1CCN(Cc2ccc(C(F)(F)F)cc2)CC1)c1ccc2[nH]c3c(c2c1)CN(c1ccc(F)cc1)CC3 [Compound 2-37, 2-(4-fluorophenyl)-N-(1-(4-(trifluoromethyl)benzyl)piperidin-4-yl)-2,3,4,5-tetrahydro-1H-pyrido[4,3-b]indole-8-carboxamide] |

Reference: US9409884B2 (Rigel Pharmaceuticals, Inc., priority 2012, dated 2016)
